Results: patent publication US9079905B2, “Compounds for the treatment of CNS disorders” (Boehringer Ingelheim International GmbH, priority 2008, dated 2015)

Target: T1, human PDE9A2 (Homo sapiens, UniProt O76083)
T1 construct: made in house; host or cells: Sf9 insect cells (infected; crude lysate used as enzyme source)
Assay: PDE9A2 enzymatic activity assay (scintillation proximity assay)
Type: biochemical
Details: for IC50: specific IC50 value is within the given range; for inhibition at 10 µM / % Inhibition of PDE 9A2: at 10 μM
Description: The PDE9A2 enzymatic activity assay was run as scintillation proximity assay (SPA), in general according to the protocol of the manufacturer (Amersham Biosciences, product number: TRKQ 7100).
As enzyme source, lysate (PBS with 1% Triton X-100 supplemented with protease inhibitors, cell debris removed by centrifugation at 13.000 rpm for 30 min) of SF 9 cell expressing the human PDE9A2 was used. The total protein amount included in the assay varied upon infection and production efficacy of the SF9 cells and lay in the range of 0.1-100 ng.
In general, the assay conditions were as follows: • total assay volume: 40 microliter • protein amount: 0.1-50 ng • substrate concentration (cGMP): 20 nanomolar; ˜1 mCi/1 • incubation time: 60 min at room temperature • final DMSO concentration: 0.2-1
The assays were run in 384-well format. The test reagents as well as the enzyme and the substrate were diluted in assay buffer. The assay buffer contained 50 mM Tris, 8.3 mM MgCl2, 1.7 mM EGTA, 0.1% BSA, 0.05% Tween 20; the pH of assay buffer was adjusted to 7.5. The reaction was stopped by applying a PDE9 specific inhibitor (e.g. compounds according to WO04099210 or WO04099211) in excess.
The activity of the positive control (minus the negative control=background) is set to 100% and activity in the presence of test compound is expressed relative to these 100%. Within this setting, an inhibition above 100% might be possible due to the nature of the variation of the positive control within the assay. In the following inhibition of PDE 9A2 is presented for a concentration at 10 μM, if not indicated otherwise.
IC50 can be calculated with GraphPadPrism or other suited software setting the positive control as 100 and the negative control as 0. For calculation of IC50 dilutions of the test compounds (substrates) are to be selected and tested following the aforementioned protocol.

[1] = read-out: % Inhibition of PDE 9A2

T1 sequence (O76083 1-533 isoform O76083-2): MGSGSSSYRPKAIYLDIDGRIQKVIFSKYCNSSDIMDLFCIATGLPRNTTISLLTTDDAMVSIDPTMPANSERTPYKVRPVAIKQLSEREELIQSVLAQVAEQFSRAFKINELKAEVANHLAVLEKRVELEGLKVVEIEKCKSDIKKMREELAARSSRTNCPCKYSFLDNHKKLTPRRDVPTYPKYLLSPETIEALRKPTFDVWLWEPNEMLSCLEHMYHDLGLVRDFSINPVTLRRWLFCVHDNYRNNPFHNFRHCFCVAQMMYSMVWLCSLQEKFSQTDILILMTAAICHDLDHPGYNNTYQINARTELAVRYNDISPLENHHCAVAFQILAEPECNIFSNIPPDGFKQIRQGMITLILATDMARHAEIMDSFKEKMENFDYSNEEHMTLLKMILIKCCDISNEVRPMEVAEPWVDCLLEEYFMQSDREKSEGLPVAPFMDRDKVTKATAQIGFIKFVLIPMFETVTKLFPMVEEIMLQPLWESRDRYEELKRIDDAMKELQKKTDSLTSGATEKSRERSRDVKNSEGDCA

inhibition at 10 µM [1] [%] | IC50 [nM] | inhibition at 3.3 µM (at 3.3 μM, read-out: % Inhibition of PDE 9A2) [%] | % Inhibition of PDE 9A2 [%] | Compound
102 | 1 to 100 | – | – | O=c1[nH]c(CC2CCCC2)nc2c1cnn2C1CCCC1O (mixture of isomers) [Example 10]
94 | 101 to 1500 | – | – | O=c1[nH]c(Cc2ccccn2)nc2c1cnn2C1CCCC(c2ccccc2)C1 (mixture of isomers) [Example 14]
93 | 101 to 1500 | – | – | O=c1[nH]c(CC2CC2)nc2c1cnn2C1CCCC(c2ccccc2)C1 (mixture of isomers) [Example 15]
104 | 1 to 100 | – | – | CC(C)(C)OC(=O)NC1CCCC(n2ncc3c(=O)[nH]c(CC4CCCC4)nc32)C1 (mixture of isomers) [Example 16]
103 | 1 to 100 | – | – | CCOC(=O)NC1CCCC(n2ncc3c(=O)[nH]c(CC4CCCC4)nc32)C1 (mixture of isomers) [Example 17]
100 | 1 to 100 | – | – | CC(C)(C)OC(=O)NC1CCCC(n2ncc3c(=O)[nH]c(Cc4ccccc4OC(F)(F)F)nc32)C1 (mixture of isomers) [Example 18]
100 | 1 to 100 | – | – | CCOC(=O)NC1CCCC(n2ncc3c(=O)[nH]c(Cc4ccccc4OC(F)(F)F)nc32)C1 (mixture of isomers) [Example 19]
99 | 1 to 100 | – | – | CC(=O)NC1CCCC(n2ncc3c(=O)[nH]c(Cc4ccccc4OC(F)(F)F)nc32)C1 (mixture of isomers) [Example 49]
94 | 101 to 1500 | – | – | O=C(NC1CCCC(n2ncc3c(=O)[nH]c(Cc4ccccc4OC(F)(F)F)nc32)C1)c1ccccc1 (mixture of isomers) [Example 85]
89 | 101 to 1500 | – | – | COC1CCCCC1n1ncc2c(=O)[nH]c(CC3CC3)nc21 (racemic) [Example 11]
83 | 101 to 1500 | – | – | COC1CCCCC1n1ncc2c(=O)[nH]c(Cc3ccccn3)nc21 (racemic) [Example 12]
98 | 101 to 1500 | – | – | CCCC1OCCCC1Cc1nc2c(cnn2C2CCC(F)(F)CC2)c(=O)[nH]1 (racemic) [Example 24]
103 | 1 to 100 | – | – | O=c1[nH]c(C(F)c2ccccc2)nc2c1cnn2C1CCC(F)(F)CC1 (racemic) [Example 25]
104 | 1 to 100 | – | – | CCC(Cc1nc2c(cnn2C2CCC(F)(F)CC2)c(=O)[nH]1)C(F)(F)F (racemic) [Example 27]
91 | 101 to 1500 | – | – | CC1(C)CC(Cc2nc3c(cnn3C3CCC(F)(F)CC3)c(=O)[nH]2)C(=O)O1 (racemic) [Example 28]
98 | 1 to 100 | – | – | CC(Cc1nc2c(cnn2C2CCC(F)(F)CC2)c(=O)[nH]1)C(F)(F)F (racemic) [Example 30]
92 | 101 to 1500 | – | – | O=c1[nH]c(C(F)c2ccccc2Br)nc2c1cnn2C1CCC(F)(F)CC1 (racemic) [Example 48-2]
93 | 101 to 1500 | – | – | CC(Cc1nc2c(cnn2C2CCC(F)(F)CC2)c(=O)[nH]1)C(F)F (racemic) [Example 48-5]
87 | 101 to 1500 | – | – | C[C@@H]1CC(Cc2nc3c(cnn3C3CCC(F)(F)CC3)c(=O)[nH]2)C(=O)N1C (mixture of isomers) [Example 48-6]
95 | 101 to 1500 | – | – | CC(=O)NC1CCCC(n2ncc3c(=O)[nH]c(CC4CCCC4)nc32)C1 (racemic) [Example 50]
98 | 101 to 1500 | – | – | O=C(NC1CCCC(n2ncc3c(=O)[nH]c(CC4CCCC4)nc32)C1)c1ccccc1 (racemic) [Example 51]
98 | 1 to 100 | – | – | CC1(C)CC(Cc2nc3c(cnn3C3CCC(F)(F)CC3)c(=O)[nH]2)CO1 (racemic) [Example 52]
– | 101 to 1500 | 52 | – | O=c1[nH]c(C(F)c2ccccc2-c2ccncc2)nc2c1cnn2C1CCC(F)(F)CC1 (racemic) [Example 72-10]
84 | 1 to 100 | – | – | Cn1cc(-c2ccccc2C(F)c2nc3c(cnn3C3CCC(F)(F)CC3)c(=O)[nH]2)cn1 (racemic) [Example 72-11]
77 | 101 to 1500 | – | – | NC1CCCC(n2ncc3c(=O)[nH]c(CC4CCCC4)nc32)C1 (racemic) [Example 86]
81 | 101 to 1500 | – | – | NC1CCCC(n2ncc3c(=O)[nH]c(Cc4ccccc4OC(F)(F)F)nc32)C1 (racemic) [Example 87]
93 | 101 to 1500 | – | – | O=c1[nH]c(C(F)c2ccccc2-n2cccn2)nc2c1cnn2C1CCC(F)(F)CC1 (racemic) [Example 88]

inhibition at 10 µM [1] [%] | IC50 [nM] | inhibition at 3.3 µM (at 3.3 μM, read-out: % Inhibition of PDE 9A2) [%] | % Inhibition of PDE 9A2 [%] | Compound
98 | 1 to 100 | – | – | CC(Cc1nc2c(cnn2C2CCC(F)(F)CC2)c(=O)[nH]1)C(F)(F)F (single isomer, unassigned) [Example 47]
– | 101 to 1500 | – | 96 | CC(Cc1nc2c(cnn2C2CCC(F)(F)CC2)c(=O)[nH]1)C(F)(F)F (single isomer, unassigned) [Example 48]
100 | 1 to 100 | – | – | CC1(C)CC(Cc2nc3c(cnn3C3CCC(F)(F)CC3)c(=O)[nH]2)CO1 (single isomer, unassigned) [Example 77]
93 | 101 to 1500 | – | – | O=c1[nH]c(C(F)c2ccccc2-n2cccn2)nc2c1cnn2C1CCC(F)(F)CC1 (single isomer, unassigned) [Example 92]
100 | 1 to 100 | – | – | CCC(Cc1nc2c(cnn2C2CCC(F)(F)CC2)c(=O)[nH]1)C(F)(F)F (single isomer, unassigned) [Example 101]
– | 101 to 1500 | – | 96 | CCC(Cc1nc2c(cnn2C2CCC(F)(F)CC2)c(=O)[nH]1)C(F)(F)F (single isomer, unassigned) [Example 102]
98 | 1 to 100 | – | – | O=c1[nH]c(Cc2ccccn2)nc2c1cnn2C1CCC(F)(F)CC1 [Example 1]
101 | 1 to 100 | – | – | O=c1[nH]c(CC2CC2)nc2c1cnn2C1CCC(F)(F)CC1 [Example 2]
94 | 1 to 100 | – | – | O=c1[nH]c(Cc2ccccc2OC(F)(F)F)nc2c1cnn2C1CCC(F)(F)CC1 [Example 3]
100 | 1 to 100 | – | – | O=c1[nH]c(Cc2ccccc2)nc2c1cnn2C1CCC(F)(F)CC1 [Example 4]
98 | 1 to 100 | – | – | O=c1[nH]c(Cc2cccc(Cl)c2)nc2c1cnn2C1CCC(F)(F)CC1 [Example 5]
98 | 1 to 100 | – | – | O=c1[nH]c(Cc2cccc(C(F)(F)F)c2)nc2c1cnn2C1CCC(F)(F)CC1 [Example 6]
96 | 1 to 100 | – | – | O=c1[nH]c(Cc2cc(F)cc(F)c2)nc2c1cnn2C1CCC(F)(F)CC1 [Example 7]
98 | 1 to 100 | – | – | CCCCc1nc2c(cnn2C2CCC(F)(F)CC2)c(=O)[nH]1 [Example 8]
97 | 1 to 100 | – | – | CC(C)Cc1nc2c(cnn2C2CCC(F)(F)CC2)c(=O)[nH]1 [Example 9]
98 | 101 to 1500 | – | – | CC1(C)CC(n2ncc3c(=O)[nH]c(CC4CC4)nc32)CC(C)(C)C1 [Example 13]
104 | 1 to 100 | – | – | O=c1[nH]c(CC2CCCC2)nc2c1cnn2C1CCC(F)(F)CC1 [Example 20]
103 | 1 to 100 | – | – | CCC(CC)Cc1nc2c(cnn2C2CCC(F)(F)CC2)c(=O)[nH]1 [Example 21]
104 | 1 to 100 | – | – | CCCc1nc2c(cnn2C2CCC(F)(F)CC2)c(=O)[nH]1 [Example 22]
100 | 101 to 1500 | – | – | O=c1[nH]c(CC2CCOC2)nc2c1cnn2C1CCC(F)(F)CC1 (stereo not drawn) [Example 23]
100 | 1 to 100 | – | – | COc1ccc(Cc2nc3c(cnn3C3CCC(F)(F)CC3)c(=O)[nH]2)cc1 [Example 26]
99 | 1 to 100 | – | – | N#Cc1ccccc1Cc1nc2c(cnn2C2CCC(F)(F)CC2)c(=O)[nH]1 [Example 31]
98 | 1 to 100 | – | – | O=c1[nH]c(CCCC(F)(F)F)nc2c1cnn2C1CCC(F)(F)CC1 [Example 32]
98 | 1 to 100 | – | – | O=c1[nH]c(Cc2ccccc2Br)nc2c1cnn2C1CCC(F)(F)CC1 [Example 33]
96 | 101 to 1500 | – | – | O=c1[nH]c(CC2CCC(F)(F)CC2)nc2c1cnn2C1CCC(F)(F)CC1 [Example 34]
94 | 1 to 100 | – | – | Cc1cccnc1Cc1nc2c(cnn2C2CCC(F)(F)CC2)c(=O)[nH]1 [Example 35]
99 | 1 to 100 | – | – | O=c1[nH]c(Cc2ccccc2I)nc2c1cnn2C1CCC(F)(F)CC1 [Example 36]
